Results: ChEMBL document CHEMBL1201862, “PubChem BioAssay data set” (2004)
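Results reflect a 48-hour exposure of cells in 96-well plates to compound at five concentrations. Abbreviation: GI50, concentration required for 50% inhibition of growth.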 Active and inactive are the calls of the source. Rule as the data show it: active = GI50 up to about 1.1 µM and inactive = higher.

Experiments:
Test in all cases: inhibition of tumour cell growth, NCI panel, 48 h
[1] = system: HT-29
[2] = system: MDA-MB-231
[3] = system: OVCAR-4
[4] = system: LOX IMVI
[5] = system: SK-MEL-2
[6] = system: UACC-62
[7] = system: T47D
[8] = system: MDA-MB-435
[9] = system: HCC 2998
[10] = system: HCT-116
[11] = system: KM12
[12] = system: OVCAR-3
[13] = system: COLO 205
[14] = system: SNB-75
[15] = system: SW-620
[16] = system: SF-539
[17] = system: K562
[18] = system: RPMI-8226
[19] = system: SF-295
[20] = system: HL-60
[21] = system: MDA-N
[22] = system: A498
[23] = system: CCRF-CEM
[24] = system: OVCAR-8
[25] = system: NCI/ADR-RES
[26] = system: Hs-578T
[27] = system: 786-0
[28] = system: SK-MEL-28
[29] = system: PC-3
[30] = system: NCI-H460
[31] = system: HCT-15
[32] = system: BT-549
[33] = system: ACHN
[34] = system: SF-268
[35] = system: NCI-H23
[36] = system: SK-OV-3
[37] = system: MOLT-4
[38] = system: SR
[39] = system: U-251
[40] = system: UO-31
[41] = system: A549
[42] = system: SNB-19
[43] = system: SK-MEL-5
[44] = system: HOP-62
[45] = system: M14
[46] = system: Malme-3M
[47] = system: CAKI-1
[48] = system: TK-10
[49] = system: EKVX
[50] = system: DU-145
[51] = system: NCI-H522
[52] = system: IGROV-1
[53] = system: OVCAR-5
[54] = system: UACC-257
[55] = system: RXF 393
[56] = system: NCI-H226
[57] = system: HOP-92
[58] = system: SN12C

CCCCCCCC(=O)NS(=O)(=O)c1ccccc1
GI50 [1]: > 100 µM (inactive) | GI50 [2]: > 100 µM (inactive) | GI50 [3]: > 100 µM (inactive) | GI50 [4]: > 100 µM (inactive) | GI50 [5]: > 100 µM (inactive) | GI50 [6]: > 100 µM (inactive) | GI50 [7]: > 100 µM (inactive) | GI50 [8]: > 100 µM (inactive) | GI50 [9]: > 100 µM (inactive) | GI50 [10]: > 100 µM (inactive) | GI50 [11]: > 100 µM (inactive) | GI50 [12]: > 100 µM (inactive) | GI50 [13]: > 100 µM (inactive) | GI50 [14]: > 100 µM (inactive) | GI50 [15]: > 100 µM (inactive) | GI50 [16]: > 100 µM (inactive) | GI50 [17]: > 100 µM (inactive) | GI50 [18]: > 100 µM (inactive) | GI50 [19]: > 100 µM (inactive) | GI50 [20]: > 100 µM (inactive) | GI50 [21]: > 100 µM (inactive) | GI50 [22]: > 100 µM (inactive) | GI50 [23]: > 100 µM (inactive) | GI50 [24]: > 100 µM (inactive) | GI50 [25]: > 100 µM (inactive) | GI50 [26]: > 100 µM (inactive) | GI50 [27]: > 100 µM (inactive) | GI50 [28]: > 100 µM (inactive) | GI50 [29]: > 100 µM (inactive) | GI50 [30]: > 100 µM (inactive) | GI50 [31]: > 100 µM | GI50 [32]: > 100 µM (inactive) | GI50 [33]: > 100 µM (inactive) | GI50 [34]: > 100 µM (inactive) | GI50 [35]: > 100 µM (inactive) | GI50 [36]: > 100 µM (inactive) | GI50 [37]: > 100 µM (inactive) | GI50 [38]: > 100 µM (inactive) | GI50 [39]: > 100 µM (inactive) | GI50 [40]: > 100 µM (inactive) | GI50 [41]: > 100 µM (inactive) | GI50 [42]: > 100 µM (inactive) | GI50 [43]: > 100 µM (inactive) | GI50 [44]: > 100 µM (inactive) | GI50 [45]: 77.1 µM (inactive) | GI50 [46]: > 100 µM (inactive) | GI50 [47]: > 100 µM (inactive) | GI50 [48]: > 100 µM (inactive) | GI50 [49]: > 100 µM (inactive) | GI50 [50]: > 100 µM (inactive) | GI50 [51]: 73.3 µM (inactive) | GI50 [52]: > 100 µM (inactive)

CC1=NNC(=O)C1C1CC(c2c[nH]c3ccccc23)=NNC1=O (stereo unspecified)
GI50 [1]: > 100 µM (inactive) | GI50 [53]: > 100 µM (inactive) | GI50 [54]: > 100 µM (inactive) | GI50 [2]: > 100 µM (inactive) | GI50 [5]: > 100 µM (inactive) | GI50 [6]: > 100 µM (inactive) | GI50 [7]: > 100 µM (inactive) | GI50 [8]: > 100 µM (inactive) | GI50 [55]: > 100 µM (inactive) | GI50 [10]: > 100 µM (inactive) | GI50 [11]: 62.7 µM (inactive) | GI50 [12]: > 100 µM (inactive) | GI50 [13]: > 100 µM (inactive) | GI50 [14]: 28.4 µM (inactive) | GI50 [15]: > 100 µM (inactive) | GI50 [16]: > 100 µM (inactive) | GI50 [17]: > 100 µM (inactive) | GI50 [18]: > 100 µM (inactive) | GI50 [19]: > 100 µM (inactive) | GI50 [20]: > 100 µM (inactive) | GI50 [21]: > 100 µM (inactive) | GI50 [22]: > 100 µM (inactive) | GI50 [23]: > 100 µM (inactive) | GI50 [24]: > 100 µM (inactive) | GI50 [25]: > 100 µM (inactive) | GI50 [26]: > 100 µM (inactive) | GI50 [56]: > 100 µM (inactive) | GI50 [27]: > 100 µM (inactive) | GI50 [28]: > 100 µM (inactive) | GI50 [29]: > 100 µM (inactive) | GI50 [30]: > 100 µM (inactive) | GI50 [31]: > 100 µM | GI50 [57]: > 100 µM (inactive) | GI50 [32]: > 100 µM (inactive) | GI50 [33]: > 100 µM (inactive) | GI50 [34]: > 100 µM (inactive) | GI50 [35]: > 100 µM (inactive) | GI50 [36]: > 100 µM (inactive) | GI50 [37]: > 100 µM (inactive) | GI50 [39]: > 100 µM (inactive) | GI50 [40]: > 100 µM (inactive) | GI50 [41]: > 100 µM (inactive) | GI50 [42]: > 100 µM (inactive) | GI50 [43]: > 100 µM (inactive) | GI50 [44]: > 100 µM (inactive) | GI50 [45]: > 100 µM (inactive) | GI50 [46]: > 100 µM (inactive) | GI50 [47]: > 100 µM (inactive) | GI50 [48]: > 100 µM (inactive) | GI50 [49]: 11.9 µM (inactive) | GI50 [50]: > 100 µM (inactive) | GI50 [51]: > 100 µM (inactive) | GI50 [58]: > 100 µM (inactive) | GI50 [52]: 0.773 µM (active)

O=C1C=C2CC[C@H]3[C@@H]4CC[C@H](Oc5c6ccccc6nc6ccccc56)[C@H]4CC[C@@H]3[C@H]2CC1
GI50 [1]: 36.7 µM (inactive) | GI50 [53]: > 100 µM (inactive) | GI50 [54]: 35.6 µM (inactive) | GI50 [2]: 41.3 µM (inactive) | GI50 [3]: 52.7 µM (inactive) | GI50 [4]: 27.8 µM (inactive) | GI50 [5]: 40 µM (inactive) | GI50 [6]: 16.7 µM (inactive) | GI50 [7]: 43.1 µM (inactive) | GI50 [8]: 32.7 µM (inactive) | GI50 [55]: 26.2 µM (inactive) | GI50 [10]: 37.1 µM (inactive) | GI50 [11]: 39.6 µM (inactive) | GI50 [12]: 42.6 µM (inactive) | GI50 [13]: 42.5 µM (inactive) | GI50 [14]: 28.3 µM (inactive) | GI50 [15]: 51.8 µM (inactive) | GI50 [16]: 52.2 µM (inactive) | GI50 [17]: 32.7 µM (inactive) | GI50 [19]: 52.4 µM (inactive) | GI50 [20]: 12.2 µM (inactive) | GI50 [21]: 21.4 µM (inactive) | GI50 [23]: 18.5 µM (inactive) | GI50 [24]: 22.9 µM (inactive) | GI50 [25]: 20.4 µM (inactive) | GI50 [26]: 26.8 µM (inactive) | GI50 [56]: 60.7 µM (inactive) | GI50 [27]: 91.2 µM (inactive) | GI50 [28]: 48.9 µM (inactive) | GI50 [29]: 33.4 µM (inactive) | GI50 [30]: 35.6 µM (inactive) | GI50 [31]: 24.7 µM | GI50 [57]: 13.3 µM (inactive) | GI50 [32]: 20.3 µM (inactive) | GI50 [33]: 48.4 µM (inactive) | GI50 [34]: 84.9 µM (inactive) | GI50 [35]: 27.6 µM (inactive) | GI50 [36]: 60.8 µM (inactive) | GI50 [39]: 41.9 µM (inactive) | GI50 [41]: 54.1 µM (inactive) | GI50 [42]: > 100 µM (inactive) | GI50 [43]: 22.5 µM (inactive) | GI50 [44]: 57.1 µM (inactive) | GI50 [45]: 61.9 µM (inactive) | GI50 [47]: 36.7 µM (inactive) | GI50 [48]: 47.8 µM (inactive) | GI50 [49]: 4.47 µM (inactive) | GI50 [50]: 87.7 µM (inactive) | GI50 [58]: 55.3 µM (inactive) | GI50 [52]: 31.9 µM (inactive)
